Test results taken from patent US7138361B2, “Herbicidal heterocycles” (E. I. du Pont de Nemours and Company, priority 2000, dated 2006).

Key:
Format in all cases: in vivo
[1] = tested on: wheat (Triticum aestivum); test: Test B postemergence; conditions: Rate 500 g/ha, scale 0 to 100, 0 is no effect, 100 is complete control, 13 to 15 days
Outline: (§1)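 Ratings on a 0 to 100 visual scale (100 complete control) compare treated plants with controls 13 to 15 days after application. Treatments were pre- or postemergence sprays of compound in non-phytotoxic solvent with surfactant.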

[2] = tested on: barnyardgrass (Echinochloa crus-galli); test: Test B postemergence; conditions: 13 to 15 days
Outline: as §1

[3] = tested on: corn (Zea mays); test: Test B postemergence; conditions: 13 to 15 days
Outline: as §1

[4] = tested on: wild oat (Avena fatua); test: Test B postemergence; conditions: Rate 500 g/ha, scale 0 to 100, 0 is no effect, 100 is complete control, 13 to 15 days
Outline: as §1

[5] = tested on: Sunflower; test: Test C preemergence; conditions: Rate 250 g/ha, scale 0 to 100, 0 no effect, 100 complete control
[6] = tested on: duck salad (Heteranthera limosa); test: Test C flooded paddy test; conditions: for Ducksalad plant response rating: Flooded Paddy, scale 0 to 100, 0 no effect, 100 complete control; for Plant response rating, Ducksalad: flooded paddy test, scale 0 to 100 (0 no effect, 100 complete control)
Outline: (§2)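 Each species was cultivated to 2 leaves in flooded paddy pots, then treated. After a greenhouse period of 12–14 days, the plants were scored visually relative to controls from 0 (no effect) to 100 (complete control).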

[7] = tested on: rice (Oryza saliva); test: Test C flooded paddy test; conditions: for Rice plant response rating: Flooded Paddy, scale 0 to 100, 0 no effect, 100 complete control; for Plant response rating, Rice: flooded paddy test, scale 0 to 100 (0 no effect, 100 complete control)
Outline: as §2

[8] = tested on: barnyardgrass (Echinochloa crus-galli); test: Test C flooded paddy test; conditions: for Barnyardgrass plant response rating: Flooded Paddy, scale 0 to 100, 0 no effect, 100 complete control; for Plant response rating, Barnyardgrass: flooded paddy test, scale 0 to 100 (0 no effect, 100 complete control)
Outline: as §2

[9] = tested on: smallflower flatsedge (Cyperus difformis); test: Test C flooded paddy test; conditions: for Flatsedge plant response rating: Flooded Paddy, scale 0 to 100, 0 no effect, 100 complete control; for Plant response rating, Flatsedge: flooded paddy test, scale 0 to 100 (0 no effect, 100 complete control)
Outline: as §2

[10] = tested on: yellow nutsedge (Cyperus esculentus); test: Test C preemergence
Outline: (§3)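 Seeds are planted and treated before emergence; for the postemergence test, plants at 1- to 4-leaf stage (2–18 cm) receive the same formulation, a solvent blend containing surfactant. Plants stay in the greenhouse 12–14 days, then response is scored visually from 0 (none) to 100 (complete control).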

[11] = tested on: kochia (Kochia scoparia); test: Test C preemergence
Outline: as §3

[12] = tested on: pigweed (Amaranthus retroflexus); test: Test C preemergence
Outline: as §3

[13] = tested on: Nightshade; test: Test C preemergence
[14] = tested on: lambsquarters (Chenopodium album); test: Test C preemergence
Outline: as §3

[15] = tested on: woolly cupgrass (Eriochloa villosa); test: Test C preemergence
Outline: as §3

[16] = tested on: corn (Zea mays); test: Test C preemergence
Outline: as §3

[17] = tested on: soybean (Glycine max); test: Test C preemergence
Outline: as §3

[18] = tested on: johnsongrass (Sorghum halepense); test: Test C preemergence
Outline: as §3

[19] = tested on: Nightshade; test: Test C preemergence; conditions: Rate 500 g/ha, visual evaluation after 12 to 14 days
[20] = Rate 125 g/ha, scale 0 (no effect) to 100 (complete control)
[21] = Rate 500 g/ha, scale 0 to 100, 0 is no effect, 100 is complete control
[22] = Rate 125 g/ha, scale 0 to 100, 0 no effect, 100 complete control
[23] = preemergence, Rate 62 g/ha, scale 0 to 100
[24] = preemergence, Rate 500 g/ha, visual evaluation after 12 to 14 days
[25] = preemergence, Rate 250 g/ha, scale 0 to 100, 0 no effect, 100 complete control

CCCC(C)c1ccn(C2OCN(c3cccc(C(F)(F)F)c3)C2=O)n1 (centres unmarked) [Compound 89]
Plant response rating, Wheat [1]: 0
Plant response rating, Barnyardgrass [2, 20]: 0
Plant response rating, Barnyardgrass [2, 21]: 80
Plant response rating, Corn [3, 20]: 30
Plant response rating, Corn [3, 21]: 0
Plant response rating, Wild Oat [4]: 0
Plant response rating, Sunflower [5]: 0
Ducksalad plant response rating ([6]; Rate 250 g/ha): 40
Ducksalad plant response rating ([6]; Rate 500 g/ha): 90
Plant response rating, Ducksalad ([6]; Rate 62 g/ha): 0
Plant response rating, Ducksalad ([6]; Rate 125 g/ha): 0
Rice plant response rating ([7]; Rate 250 g/ha): 20
Rice plant response rating ([7]; Rate 500 g/ha): 40
Plant response rating, Rice ([7]; Rate 62 g/ha): 0
Plant response rating, Rice ([7]; Rate 125 g/ha): 0
Barnyardgrass plant response rating ([8]; Rate 250 g/ha): 100
Barnyardgrass plant response rating ([8]; Rate 500 g/ha): 100
Plant response rating, Barnyardgrass ([8]; Rate 62 g/ha): 20
Plant response rating, Barnyardgrass ([8]; Rate 125 g/ha): 70
Flatsedge plant response rating ([9]; Rate 250 g/ha): 90
Flatsedge plant response rating ([9]; Rate 500 g/ha): 100
Plant response rating, Flatsedge ([9]; Rate 62 g/ha): 80
Plant response rating, Flatsedge ([9]; Rate 125 g/ha): 90
Plant response rating, Nutsedge [10, 22]: 0
Plant response rating, Nutsedge [10, 23]: 0
Plant response rating (0 to 100), Nutsedge [10, 24]: 0
Plant response rating, Nutsedge [10, 25]: 0
Plant response rating, Kochia [11, 22]: 70
Plant response rating, Kochia [11, 23]: 20
Plant response rating (0 to 100), Kochia [11, 24]: 100
Plant response rating, Kochia [11, 25]: 90
Plant response rating, Pigweed [12, 22]: 0
Plant response rating, Pigweed [12, 23]: 0
Plant response rating (0 to 100), Pigweed [12, 24]: 100
Plant response rating, Pigweed [12, 25]: 50
Plant response rating, Nightshade ([13]; Rate 62 g/ha, scale 0 to 100): 0
Plant response rating, Nightshade [13, 22]: 0
Plant response rating, Nightshade ([13]; Rate 250 g/ha, scale 0 to 100, 0 no effect, 100 complete control): 0
Plant response rating, Lambsquarters [14, 22]: 100
Plant response rating, Lambsquarters [14, 23]: 80
Plant response rating (0 to 100), Lambsquarters [14, 24]: 100
Plant response rating, Lambsquarters [14, 25]: 100
Plant response rating, Cupgrass, Woolly [15, 22]: 0
Plant response rating, Cupgrass, Woolly [15, 23]: 0
Plant response rating (0 to 100), Cupgrass, Woolly [15, 24]: 70
Plant response rating, Cupgrass, Woolly [15, 25]: 40
Plant response rating, Corn [16, 22]: 25
Plant response rating, Corn [16, 23]: 10
Plant response rating (0 to 100), Corn [16, 24]: 30
Plant response rating, Corn [16, 25]: 30
Plant response rating, Soybean [17, 22]: 0
Plant response rating, Soybean [17, 23]: 0
Plant response rating (0 to 100), Soybean [17, 24]: 30
Plant response rating, Soybean [17, 25]: 0
Plant response rating, Johnsongrass [18, 22]: 70
Plant response rating, Johnsongrass [18, 23]: 50
Plant response rating (0 to 100), Johnsongrass [18, 24]: 100
Plant response rating, Johnsongrass [18, 25]: 70
Plant response rating (0 to 100), Nightshade [19]: 30
